According to US20240018145A1, “[…]-DEPENDENT EN[…] TREATING OR […]” (priority 2020, published 2024):

These molecules were tested on FLU A (PR/8/34) (assay: Flu A Neuraminidase Antiviral Assay). Details: not given.
Assay type: cell-based

Question: With `CN1C(=O)c2c(O)c(=O)ccn2N2C(c3ccccc3)C3CCCC(C3)C12` (single isomer, unassigned) [Compound 11B, 4-hydroxy-6-methyl-12-phenyl-6,6a,7,8,9,10,11,12-octahydro-7,11-methanopyrido[1′,2′:1,6][1,2,4]triazino[2,3-a]azocine-3,5-dione] as the molecule, how does the EC50 read?
Answer: > 8.1 µM

Question: Which EC50 does the source give for `CN1C(=O)c2c(O)c(=O)ccn2N2C(c3cccc(OC(F)F)c3)CCCC12` (single isomer, unassigned) [Compound 12B, 1-(3-(difluoromethoxy)phenyl)-7-hydroxy-5-methyl-1,2,3,4,4a,5-hexahydrodipyrido[1,2-b:2′,1′-f][1,2,4]triazine-6,8-dione] here?
Answer: > 8.1 µM

Question: Which EC50 does the source give for `CN1C(=O)c2c(O)c(=O)ccn2N2C(c3cc(F)ccc3C(F)(F)F)CCCC12` (single isomer, unassigned) [Compound 13A, 1-(5-fluoro-2-(trifluoromethyl)phenyl)-7-hydroxy-5-methyl-1,2,3,4,4a,5-hexahydro-dipyrido[1,2-b:2′,1′-f][1,2,4]triazine-6,8-dione] here?
Answer: > 8.1 µM

Question: With `CN1C(=O)c2c(O)c(=O)ccn2N2C(c3cc(F)ccc3C(F)(F)F)CCCC12` (single isomer, unassigned) [Compound 13B, 1-(5-fluoro-2-(trifluoromethyl)phenyl)-7-hydroxy-5-methyl-1,2,3,4,4a,5-hexahydro-dipyrido[1,2-b:2′,1′-f][1,2,4]triazine-6,8-dione] as the molecule, how does the EC50 read?
Answer: 0.783 µM

Question: `CN1C(=O)c2c(O)c(=O)ccn2N2C(c3ccccc3C(F)(F)F)CCCC12` (single isomer, unassigned) [Compound 14B, 7-hydroxy-5-methyl-1-(2-(trifluoromethyl)phenyl)-1,2,3,4,4a,5-hexahydrodipyrido[1,2-b:2′,1′-f][1,2,4]triazine-6,8-dione] was tested. Which EC50 did it give?
Answer: > 8.1 µM

Question: With `CN1C(=O)c2c(O)c(=O)ccn2N2C(c3ccccc3C(F)(F)F)CCC12` (single isomer, unassigned) [Compound 15A, 6-hydroxy-4-methyl-1-(2-(trifluoromethyl)phenyl)-2,3,3a,4-tetrahydro-1H-pyrido[2,1-f]pyrrolo[1,2-b][1,2,4]triazine-5,7-dione] as the molecule, how does the EC50 read?
Answer: > 8.1 µM

Question: Which EC50 does the source give for `CN1C(=O)c2c(O)c(=O)ccn2N2C(c3ccccc3C(F)(F)F)CCC12` (single isomer, unassigned) [Compound 15B, 6-hydroxy-4-methyl-1-(2-(trifluoromethyl)phenyl)-2,3,3a,4-tetrahydro-1H-pyrido[2,1-f]pyrrolo[1,2-b][1,2,4]triazine-5,7-dione] here?
Answer: 1.45 µM

Question: Which EC50 does the source give for `CN1C(=O)c2c(O)c(=O)ccn2N2C(c3cc(F)ccc3OC(F)F)CCCC12` (single isomer, unassigned) [Compound 17A, 1-(2-(difluoromethoxy)-5-fluorophenyl)-7-hydroxy-5-methyl-1,2,3,4,4a,5-hexahydrodipyrido[1,2-b:2′,1′-f][1,2,4]triazine-6,8-dione] here?
Answer: 3.51 µM

Question: With `CN1C(=O)c2c(O)c(=O)ccn2N2C(c3cc(F)ccc3OC(F)F)CCCC12` (single isomer, unassigned) [Compound 17B, 1-(2-(difluoromethoxy)-5-fluorophenyl)-7-hydroxy-5-methyl-1,2,3,4,4a,5-hexahydrodipyrido[1,2-b:2′,1′-f][1,2,4]triazine-6,8-dione] as the molecule, how does the EC50 read?
Answer: 0.103 µM

Question: `CN1C(=O)c2c(O)c(=O)ccn2N2C1CCCC2(C)c1ccccc1` (single isomer, unassigned) [Compound 18A, 7-hydroxy-1,5-dimethyl-1-phenyl-1,2,3,4,4a,5-hexahydrodipyrido[1,2-b:2′,1′-f][1,2,4]triazine-6,8-dione] was tested. Which EC50 did it give?
Answer: 0.0071 µM

Question: With `CN1C(=O)c2c(O)c(=O)ccn2N2C1CCCC2(C)c1ccccc1` (single isomer, unassigned) [Compound 18B, 7-hydroxy-1,5-dimethyl-1-phenyl-1,2,3,4,4a,5-hexahydrodipyrido[1,2-b:2′,1′-f][1,2,4]triazine-6,8-dione] as the molecule, how does the EC50 read?
Answer: 0.356 µM

Question: How did the EC50 turn out when `COc1ccccc1C1CCCC2N(C)C(=O)c3c(O)c(=O)ccn3N12` (single isomer, unassigned) [Compound 19A, 7-hydroxy-1-(2-methoxyphenyl)-5-methyl-1,2,3,4,4a,5-hexahydrodipyrido[1,2-b:2′,1′-f][1,2,4]triazine-6,8-dione] was run?
Answer: > 8.1 µM

Question: For `COc1ccccc1C1CCCC2N(C)C(=O)c3c(O)c(=O)ccn3N12` (single isomer, unassigned) [Compound 19B, 7-hydroxy-1-(2-methoxyphenyl)-5-methyl-1,2,3,4,4a,5-hexahydrodipyrido[1,2-b:2′,1′-f][1,2,4]triazine-6,8-dione], which EC50 is on record?
Answer: 0.348 µM

Question: For `CN1C(=O)c2c(O)c(=O)ccn2N2C1CCCC2(C)c1ccccc1Cl` (single isomer, unassigned) [Compound 20A, 1-(2-chlorophenyl)-7-hydroxy-1,5-dimethyl-1,2,3,4,4a,5-hexahydrodipyrido[1,2-b:2′,1′-f][1,2,4]triazine-6,8-dione], which EC50 is on record?
Answer: 0.564 µM

Question: `CN1C(=O)c2c(O)c(=O)ccn2N2C1CCCC2(C)c1ccccc1Cl` (single isomer, unassigned) [Compound 20B, 1-(2-chlorophenyl)-7-hydroxy-1,5-dimethyl-1,2,3,4,4a,5-hexahydrodipyrido[1,2-b:2′,1′-f][1,2,4]triazine-6,8-dione] was tested. Which EC50 did it give?
Answer: 0.0046 µM

Question: How did the EC50 turn out when `CN1C(=O)c2c(O)c(=O)ccn2N2C1CCCC21CCc2ccccc21` (single isomer, unassigned) [Compound 21A, 7-hydroxy-5-methyl-2′,3,3′,4,4a,5-hexahydro-2H-spiro[dipyrido[1,2-b:2′,1′-f][1,2,4]triazine-1,1′-indene]-6,8-dione] was run?
Answer: > 8.1 µM

Question: How did the EC50 turn out when `CN1C(=O)c2c(O)c(=O)ccn2N2C1CCCC21CCc2ccccc21` (single isomer, unassigned) [Compound 21B, 7-hydroxy-5-methyl-2′,3,3′,4,4a,5-hexahydro-2H-spiro[dipyrido[1,2-b:2′,1′-f][1,2,4]triazine-1,1′-indene]-6,8-dione] was run?
Answer: 0.0026 µM

Question: For `CN1C(=O)c2c(O)c(=O)ccn2N2C1CCCC21CCc2ccccc21` (single isomer, unassigned) [Compound 21C, 7-hydroxy-5-methyl-2′,3,3′,4,4a,5-hexahydro-2H-spiro[dipyrido[1,2-b:2′,1′-f][1,2,4]triazine-1,1′-indene]-6,8-dione], which EC50 is on record?
Answer: 1.6 µM

Question: Which EC50 does the source give for `CN1C(=O)c2c(O)c(=O)ccn2N2C1CCCC21CCc2ccccc21` (single isomer, unassigned) [Compound 21D, 7-hydroxy-5-methyl-2′,3,3′,4,4a,5-hexahydro-2H-spiro[dipyrido[1,2-b:2′,1′-f][1,2,4]triazine-1,1′-indene]-6,8-dione] here?
Answer: 1.55 µM

Question: With `CCC1(c2ccccc2)CCCC2N(C)C(=O)c3c(O)c(=O)ccn3N21` (single isomer, unassigned) [Compound 22A, 1-ethyl-7-hydroxy-5-methyl-1-phenyl-1,2,3,4,4a,5-hexahydrodipyrido[1,2-b:2′,1′-f][1,2,4]triazine-6,8-dione] as the molecule, how does the EC50 read?
Answer: > 8.1 µM

Question: For `CCC1(c2ccccc2)CCCC2N(C)C(=O)c3c(O)c(=O)ccn3N21` (single isomer, unassigned) [Compound 22B, 1-ethyl-7-hydroxy-5-methyl-1-phenyl-1,2,3,4,4a,5-hexahydrodipyrido[1,2-b:2′,1′-f][1,2,4]triazine-6,8-dione], which EC50 is on record?
Answer: 5.29 µM

Question: For `CCC1(c2ccccc2)CCCC2N(C)C(=O)c3c(O)c(=O)ccn3N21` (single isomer, unassigned) [Compound 22C, 1-ethyl-7-hydroxy-5-methyl-1-phenyl-1,2,3,4,4a,5-hexahydrodipyrido[1,2-b:2′,1′-f][1,2,4]triazine-6,8-dione], which EC50 is on record?
Answer: > 8.1 µM

Question: How did the EC50 turn out when `CCC1(c2ccccc2)CCCC2N(C)C(=O)c3c(O)c(=O)ccn3N21` (single isomer, unassigned) [Compound 22D, 1-ethyl-7-hydroxy-5-methyl-1-phenyl-1,2,3,4,4a,5-hexahydrodipyrido[1,2-b:2′,1′-f][1,2,4]triazine-6,8-dione] was run?
Answer: 0.011 µM

Question: For `CN1C(=O)c2c(O)c(=O)ccn2N2C1CCCC2(C)c1c(F)cccc1F` (single isomer, unassigned) [Compound 23A, 1-(2,6-difluorophenyl)-7-hydroxy-1,5-dimethyl-1,2,3,4,4a,5-hexahydrodipyrido[1,2-b:2′,1′-f][1,2,4]triazine-6,8-dione], which EC50 is on record?
Answer: > 8.1 µM

Question: How did the EC50 turn out when `CN1C(=O)c2c(O)c(=O)ccn2N2C1CCCC2(C)c1c(F)cccc1F` (single isomer, unassigned) [Compound 23B, 1-(2,6-difluorophenyl)-7-hydroxy-1,5-dimethyl-1,2,3,4,4a,5-hexahydrodipyrido[1,2-b:2′,1′-f][1,2,4]triazine-6,8-dione] was run?
Answer: 0.0026 µM

Question: For `CN1C(=O)c2c(O)c(=O)ccn2N2C1CCCC2(C)c1ccccc1F` (single isomer, unassigned) [Compound 24A, 1-(2-fluorophenyl)-7-hydroxy-1,5-dimethyl-1,2,3,4,4a,5-hexahydrodipyrido[1,2-b:2′,1′-f][1,2,4]triazine-6,8-dione], which EC50 is on record?
Answer: 0.0021 µM

Question: Which EC50 does the source give for `CN1C(=O)c2c(O)c(=O)ccn2N2C1CCCC2(C)c1ccccc1F` (single isomer, unassigned) [Compound 24B, 1-(2-fluorophenyl)-7-hydroxy-1,5-dimethyl-1,2,3,4,4a,5-hexahydrodipyrido[1,2-b:2′,1′-f][1,2,4]triazine-6,8-dione] here?
Answer: 1.24 µM

Same assay, conditions: MDCK, 48 h

Question: With `CN1C(=O)c2c(O)c(=O)ccn2N2C(c3ccccc3)C3CCCC(C3)C12` (single isomer, unassigned) [Compound 11A, 4-hydroxy-6-methyl-12-phenyl-6,6a,7,8,9,10,11,12-octahydro-7,11-methanopyrido[1′,2′:1,6][1,2,4]triazino[2,3-a]azocine-3,5-dione] as the molecule, how does the EC50 read?
Answer: > 8.1 µM

Question: For `CN1C(=O)c2c(O)c(=O)ccn2N2C(c3cccc(OC(F)F)c3)CCCC12` (single isomer, unassigned) [Compound 12A, 1-(3-(difluoromethoxy)phenyl)-7-hydroxy-5-methyl-1,2,3,4,4a,5-hexahydrodipyrido[1,2-b:2′,1′-f][1,2,4]triazine-6,8-dione], which EC50 is on record?
Answer: > 8.1 µM

Question: With `CN1C(=O)c2c(O)c(=O)ccn2N2C(c3ccccc3C(F)(F)F)CCCC12` (single isomer, unassigned) [Compound 14A, 7-hydroxy-5-methyl-1-(2-(trifluoromethyl)phenyl)-1,2,3,4,4a,5-hexahydrodipyrido[1,2-b:2′,1′-f][1,2,4]triazine-6,8-dione] as the molecule, how does the EC50 read?
Answer: > 8.1 µM
